Experimental data taken from patent publication US6953812B2, “Glucagon antagonists/inverse agonists” (Novo Nordisk, Inc., priority 2000, dated 2005).

Tests used:
human glucagon receptor = molecular target: T1, human glucagon receptor (Homo sapiens, UniProt P47871); experiment: Glucagon Binding Assay (II); details: membranes of BHK cells transfected with human glucagon receptor, 125I-glucagon, SPA; read-out: Glu Bd Assay (II) IC50
T1 construct: expressed in transfected cells; host or cells: BHK (baby hamster kidney) cells, membrane preparation
Method: Glucagon Binding Assay (II)
BHK (baby hamster kidney cell line) cells are transfected with the human glucagon receptor and a membrane preparation of the cells is prepared.
All steps in the membrane preparation are kept on ice or performed at 4° C. BHK cells are harvested and centrifuged. The pellet is resuspended in homogenisation buffer (25 mM HEPES, pH=7.4, 2.5 mM CaCl2, 1.0 mM MgCl2, 250 mg/L bacitracin, 0.1 mM Pefabloc), homogenised 2×10 sec using Polytron 10-35 homogenizer (Kinematica) and added the same amount of homogenisation buffer as used for resuspension. After centrifugation (15 min at 2000×g) the supernatant is transferred to cold centrifuge tubes and centrifuged for 45 min at 40.000×g. The pellet is resuspended in homogenisation buffer, homogenised 2×10 sec (Polytron) and additional homogenisation buffer is added. The suspension is centrifuged for 45 min at 40.000×g and the pellet is resuspended in resuspension buffer (25 mM HEPES, pH=7.4, 2.5 mM CaCl2, 1.0 mM MgCl2) and homogenised 2×10 sec. (Polytron). […] Stabilisation buffer (25 mM HEPES, pH=7.4, 2.5 mM CaCl2, 1.0 mM MgCl2, 1% bovine serum albumin, 500 mg/L bacitracin, 2.5 M sucrose) is added and the membrane preparation is stored at −80° C.
(§1) The glucagon binding assay is carried out in opti plates (Polystyrene Microplates, Packard). 50 μL assay buffer (25 mM HEPES, pH=7.5, 2.5 mM CaCl2, 1.0 mM MgCl2, 0.003% Tween-20, 0.005% bacitracin, 0.05% sodium azide) and 5 μL glucagon or test compound (in DMSO) are added to each well. […] Finally 50 μL WGA beads containing 1 mg beads are transferred to the well. The opti plates are incubated for 4 hours on a shaker and then settled for 8-48 hours. The opti plates are counted in a Topcounter. Non-specific binding is determined with 500 nM of glucagon.

human GIP receptor = molecular target: T2, human GIP receptor (Homo sapiens, UniProt P48546); experiment: GIP Binding Assay; details: membranes of BHK cells transfected with human GIP receptor, 125I-GIP, SPA; read-out: GIP Bd Assay IC50
T2 construct: expressed in transfected cells; host or cells: BHK (baby hamster kidney) cells, membrane preparation
T2 sequence (P48546 22-466): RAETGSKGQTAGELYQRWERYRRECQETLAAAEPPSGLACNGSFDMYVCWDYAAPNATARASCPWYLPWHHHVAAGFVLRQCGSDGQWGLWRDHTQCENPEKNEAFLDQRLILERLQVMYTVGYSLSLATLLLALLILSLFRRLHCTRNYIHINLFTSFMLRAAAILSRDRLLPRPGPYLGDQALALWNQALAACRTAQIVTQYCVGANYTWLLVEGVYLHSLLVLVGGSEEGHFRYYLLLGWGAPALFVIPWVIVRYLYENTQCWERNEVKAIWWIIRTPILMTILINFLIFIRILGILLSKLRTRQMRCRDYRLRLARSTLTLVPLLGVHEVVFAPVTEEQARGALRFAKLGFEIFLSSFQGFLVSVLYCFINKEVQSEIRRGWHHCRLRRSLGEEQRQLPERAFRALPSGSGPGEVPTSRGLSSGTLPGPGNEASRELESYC
Method: BHK (baby hamster kidney cell line) cells are transfected with the human GIP receptor and a membrane preparation of the cells is prepared.
All steps in the membrane preparation are kept on ice or performed at 4° C. BHK cells are harvested and centrifuged. The pellet is resuspended in homogenisation buffer (25 mM) HEPES, pH=7.4, 2.5 mM CaCl2, 1.0 mM MgCl2, 250 mg/L bacitracin, 0.1 mM Pefabloc), homogenised 2×10 sec using Polytron 10-35 homogenizer (Kinematica) and added the same amount of homogenisation buffer as used for resuspension. After centrifugation (15 min at 2000×g) the supernatant is transferred to cold centrifuge tubes and centrifuged for 45 min at 40.000×g. The pellet is resuspended in homogenisation buffer, homogenised 2×10 sec (Polytron) and additional homogenisation buffer is added. The suspension is centrifuged for 45 min at 40.000×g and the pellet is resuspended in resuspension buffer (25 mM HEPES, pH=7.4, 2.5 mM CaCl2, 1.0 mM MgCl2) and homogenised 2×10 sec. (Polytron). […] Stabilisation buffer (25 mM HEPES, pH=7.4, 2.5 mM CaCl2, 1.0 mM MgCl2, 1% bovine serum albumin, 500 mg/L bacitracin, 2.5 M sucrose) is added and the membrane preparation is stored at −80° C.
as §1, with “The GIP” for “The glucagon”, “μL GIP” for “μL glucagon”, “for 3.5” for “for 4”, “a Top-counter.” for “a Topcounter.”, “of GIP.” for “of glucagon.”

T1 sequence (P47871 26-477): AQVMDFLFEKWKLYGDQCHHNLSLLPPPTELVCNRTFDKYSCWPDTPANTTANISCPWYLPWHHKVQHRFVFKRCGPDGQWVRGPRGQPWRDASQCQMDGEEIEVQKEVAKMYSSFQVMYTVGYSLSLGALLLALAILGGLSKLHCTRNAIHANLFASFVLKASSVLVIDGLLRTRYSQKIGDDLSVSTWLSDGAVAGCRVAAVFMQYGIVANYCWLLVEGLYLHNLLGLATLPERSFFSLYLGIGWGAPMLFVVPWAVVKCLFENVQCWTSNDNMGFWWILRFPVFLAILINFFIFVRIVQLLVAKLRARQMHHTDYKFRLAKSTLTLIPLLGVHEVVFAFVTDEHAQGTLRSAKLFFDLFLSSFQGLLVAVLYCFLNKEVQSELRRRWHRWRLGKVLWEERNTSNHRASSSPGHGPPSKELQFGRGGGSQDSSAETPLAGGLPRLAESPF

| IC50 (human glucagon receptor) [nM] | IC50 (human GIP receptor) [nM] | SMILES |
| --- | --- | --- |
| 293 | 1260 | O=C(NC[C@@H](O)C(=O)O)c1ccc(CN(C(=O)Nc2ccccc2)c2ccc(C3=CCCCC3)cc2)cc1 [Example 21, (R)-3-{4-[1-(4-Cyclohex-1-enylphenyl)-3-phenylureidomethyl]benzoylamino}-2-hydroxypropionic acid] |
| 4.4 | 37 | O=C(NC[C@@H](O)C(=O)O)c1ccc(CN(C(=O)Nc2ccc(SC(F)(F)F)cc2)c2ccc(C3CCCCC3)cc2)cc1 [Example 24, (R)-3-{4-[1-(4-Cyclohexylphenyl)-3-(4-trifluoromethylsulfanylphenyl)ureidomethyl]benzoylamino}-2-hydroxypropionic acid] |
| 9.7 | 258 | O=C(NC[C@@H](O)C(=O)O)c1ccc(CN(C(=O)Nc2cc(Cl)cc(Cl)c2)c2ccc(C3CCCCC3)cc2)cc1 [Example 27, (R)-3-{4-[1-(4-Cyclohexylphenyl)-3-(3,5-dichlorophenyl)ureidomethyl]benzoylamino}-2-hydroxypropionic Acid] |
| 24 | 623 | CSc1cccc(NC(=O)N(Cc2ccc(C(=O)NC[C@@H](O)C(=O)O)cc2)c2ccc(C3CCCCC3)cc2)c1 [Example 29, (R)-3-{4-[1-(4-Cyclohexylphenyl)-3-(3-methylsulfanylphenyl)ureidomethyl]benzoylamino}-2-hydroxypropionic Acid] |
| 13 | 217 | O=C(NC[C@@H](O)C(=O)O)c1ccc(CN(C(=O)Nc2ccc3c(c2)C(F)(F)OC(F)(F)O3)c2ccc(C3=CCCCC3)cc2)cc1 [Example 30, (R)-3-{4-[1-(4-Cyclohex-1-enylphenyl)-3-(2,2,4,4-tetrafluoro-4H-benzo[1,3]dioxin-6-yl)ureido-methyl]benzoylamino}-2-hydroxypropionic Acid] |
| 917 | ≥ 3000 | CO[C@H](CNC(=O)c1ccc(CN(C(=O)Nc2cc(Cl)cc(Cl)c2)c2ccc(C3=CCCCC3)cc2)cc1)C(=O)O [Example 31, 3-{4-[1-(4-Cyclohex-1-enylphenyl)-3-(3,5-dichlorophenyl)ureidomethyl]benzoylamino}-2(R)-methoxypropionic Acid] |
| 40 | 432 | C[C@H](NC(=O)N(Cc1ccc(C(=O)NC[C@@H](O)C(=O)O)cc1)c1ccc(C2CCCCC2)cc1)c1ccc(Cl)cc1 [Example 35, 3-{4-[3-[1(S)-(4-Chlorophenyl)ethyl]-1-(4-cyclohexylphenyl)ureidomethyl]benzoylamino}-2(R)-hydroxypropionic Acid] |
| 14 | 284 | O=C(NC[C@@H](O)C(=O)O)c1ccc(CN(C(=O)NCc2ccccc2-c2ccccc2)c2ccc(C3CCCCC3)cc2)cc1 [Example 36, 3-{4-[3-Biphenyl-2-ylmethyl-1-(4-cyclohexylphenyl)ureidomethyl]benzoylamino}-2(R)-hydroxypropionic acid] |
| 18 | 357 | O=C(NC[C@@H](O)C(=O)O)c1ccc(CN(C(=O)Nc2ccc(OC(F)(F)F)c(CO)c2)c2ccc(C3CCCCC3)cc2)cc1 [Example 39, (R)-3-{4-[1-(4-Cyclohexylphenyl)-3-(3-hydroxymethyl-4-trifluoromethoxyphenyl)ureidomethyl]-benzoylamino}-2-hydroxypropionic Acid] |
| 133 | 1590 | CC(C)(C)C1CCC(N(Cc2ccc(C(=O)NC[C@@H](O)C(=O)O)cc2)C(=O)Nc2ccc(Cl)c(Cl)c2)CC1 (stereo partly drawn) [Example 41, (R)-3-{4-[1-(4-tert-Butylcyclohexyl)-3-(3,4-dichlorophenyl)ureidomethyl]benzoylamino}-2-hydroxypropionic acid] |

More lines, now with the values behind:

| SMILES | IC50 (human glucagon receptor) [nM] | IC50 (human GIP receptor) [nM] |
| --- | --- | --- |
| O=C(NC[C@@H](O)C(=O)O)c1ccc(CN(C(=O)Nc2cc(Cl)cc(Cl)c2)c2ccc(C3=CCCCC3)cc2)cc1 [Example 19, (R)-3-{4-[1-(4-Cyclohex-1-enylphenyl)-3-(3,5-dichlorophenyl)ureidomethyl]benzoylamino}-2-hydroxypropionic acid] | 15 | 916 |
| O=C(NC[C@@H](O)C(=O)O)c1ccc(CN(C(=O)Nc2cccc(Cl)c2)c2ccc(C3=CCCCC3)cc2)cc1 [Example 20, (R)-3-{4-[3-(3-Chlorophenyl)-1-(4-cyclohex-1-enylphenyl)ureidomethyl]benzoylamino}-2-hydroxypropionic acid] | 52 | 693 |
| O=C(NC[C@@H](O)C(=O)O)c1ccc(CN(C(=O)NCc2ccccc2)c2ccc(C3=CCCCC3)cc2)cc1 [Example 22, (R)-3-{4-[3-Benzyl-1-(4-cyclohex-1-enylphenyl)ureidomethyl]benzoylamino}-2-hydroxypropionic acid] | 354 | 2270 |
| CS(=O)(=O)c1cc(NC(=O)N(Cc2ccc(C(=O)NC[C@@H](O)C(=O)O)cc2)c2ccc(C3=CCCCC3)cc2)ccc1OC(F)(F)F [Example 25, (R)-3-{4-[1-(4-Cyclohexen-1-ylphenyl)-3-(3-methanesulfonyl-4-trifluoromethoxyphenyl)ureidomethyl]benzoylamino}-2-hydroxypropionic acid] | 10 | 465 |
| Cc1cc(C)cc(NC(=O)N(Cc2ccc(C(=O)NC[C@@H](O)C(=O)O)cc2)[C@H]2CC[C@H](C(C)(C)C)CC2)c1 [Example 26, Trans-(R)-3-{4-[-3-(3,5-bis(methyl)phenyl)-1-(4-tert-butylcyclohexyl)ureidomethyl]benzoylamino}-2-hydroxypropionic Acid] | 92 | 703 |
| N#Cc1ccc(NC(=O)N(Cc2ccc(C(=O)NC[C@@H](O)C(=O)O)cc2)c2ccc(C3CCCCC3)cc2)cc1C(F)(F)F [Example 37, (R)-3-{4-[3-(4-Cyano-3-trifluoromethylphenyl)-1-(4-cyclohexylphenyl)ureidomethyl]benzoyl-amino}-2-hydroxypropionic Acid] | 19 | 520 |
| CC(C)(C)c1cccc(NC(=O)N(Cc2ccc(C(=O)NC[C@@H](O)C(=O)O)cc2)c2ccc(C3CCCCC3)cc2)c1 [Example 38, (R)-3-{4-[3-(3-tert-Butylphenyl)-1-(4-cyclohexylphenyl)ureidomethyl]benzoylamino)-2-hydroxypropionic Acid] | 33 | 221 |
| CC(C)(C)c1ccc(N(Cc2ccc(C(=O)NC[C@@H](O)C(=O)O)cc2)C(=O)Nc2ccc(Cl)c(Cl)c2)cc1 [Example 40, (R)-3-{4-[1-(4-tert-butylphenyl)-3-(3,4-dichlorophenyl)ureidomethyl]benzoylamino}-2-hydroxypropionic acid] | 107 | 800 |
